The test system of test [1] is MCF7. The experiment in a line: Cytotoxicity against human MCF7 cells after 24 hrs by MTT assay. It is filed as functional, cell-based. The following applies: MCF7, 24 h. On the technique in general: Formazan colour is commonly taken as a measure of viable cells.
The test system of test [2] is NCI-H460. The experiment in a line: Cytotoxicity against human NCI-H460 cells after 24 hrs by MTT assay. The following applies: NCI-H460, 24 h. It is filed as functional, cell-based.
Test [3] is described as follows: Cytotoxicity against human WI38 cells after 24 hrs by MTT assay. The conditions noted are these: WI-38, 24 h. The test is classed as cell-based.
Test [4] deals with MIA PaCa-2. The experiment in a line: Cytotoxicity against human MIA PaCa2 cells after 24 hrs by MTT assay. The following applies: MIA PaCa-2, 24 h. The test is classed as functional, cell-based.
The subject of test [5] is SF-268. The experiment in a line: Cytotoxicity against human SF-268 cells after 24 hrs by MTT assay. It is filed as functional, cell-based. The following applies: SF-268, 24 h.

For the compound `C=C1C(=O)O[C@H]2[C@@H](OC(C)=O)[C@@H]1[C@H](OC(=O)C(C)(O)CC)[C@H](C(=C)C=O)[C@@]2(C)[C@@H]1CO1` (relative stereo) [ZINAGRANDINOLIDE A], the 50% inhibitory concentration (IC50) in test [1] was found to be 510 nM; in test [2], 450 nM; in test [3], 690 nM; in test [4], 220 nM; in test [5], 290 nM.

Consider `C=C[C@@]1(C)[C@H]2OC(=O)C(=C)[C@H]([C@@H]2OC(C)=O)[C@H](OC(=O)C(C)(O)CC)[C@@H]1C(=C)C=O` (relative stereo) [ZINAGRANDINOLIDE B], for which the IC50 worked out at 380 nM in test [1]; 250 nM in test [2]; 430 nM in test [3]; 210 nM in test [4]; 300 nM in test [5].

With `COc1cccc2c1C(=O)c1c(O)c3c(c(O)c1C2=O)C[C@@](O)(C(=O)CO)C[C@@H]3O[C@H]1C[C@H](N)[C@H](O)[C@H](C)O1` [DOXORUBICIN], the figures for the half-maximal inhibitory concentration (IC50) in test [2] and in test [3] were 10 nM and 300 nM, respectively.

With `C=C1C(=O)O[C@H]2[C@@H](OC(C)=O)[C@@H]1[C@H](OC(=O)C(C)(C)O)[C@H](C(=C)C=O)[C@@]2(C)[C@@H]1CO1` (relative stereo), the IC50 in test [1] was found to be 520 nM; in test [2], 970 nM; in test [3], 760 nM; in test [4], 440 nM; in test [5] it was 640 nM.

For `C=C[C@@]1(C)[C@H]2OC(=O)C(=C)[C@H]([C@@H]2OC(C)=O)[C@H](OC(=O)C(C)(C)O)[C@@H]1C(=C)C=O` (relative stereo) [ZINAGRANDINOLIDE C], the IC50 in test [1] stood at 550 nM; in test [2] it was 270 nM; in test [3] it was 640 nM; in test [4], 320 nM; in test [5], 440 nM.

In general, IC50 refers to the concentration that inhibits the measured activity by half. Read a high IC50 as a need for much substance.
